Experimental data from PubChem BioAssay (NCI).
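In this assay, cells in 96-well plates receive the compound at five concentrations for 48 hours. Endpoints are linearly interpolated between the surrounding concentrations. TGI denotes the concentration required for complete inhibition of growth.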

How the values were obtained:
Test in all cases: DTP human tumour cell line panel, 48 h
786-0 renal = system: 786-0 renal
A498 renal = system: A498 renal
A549 NSCLC = system: A549 NSCLC
ACHN renal = system: ACHN renal
CAKI-1 renal = system: CAKI-1 renal
CCRF-CEM leukemia = system: CCRF-CEM leukemia
COLO 205 colon = system: COLO 205 colon
DLD-1 colon = system: DLD-1 colon
DMS 114 small cell lung = system: DMS 114 small cell lung
DMS 273 small cell lung = system: DMS 273 small cell lung
EKVX NSCLC = system: EKVX NSCLC
HCC-2998 colon = system: HCC-2998 colon
HCT-116 colon = system: HCT-116 colon
HCT-15 colon = system: HCT-15 colon
HL-60(TB) leukemia = system: HL-60(TB) leukemia
HOP-62 NSCLC = system: HOP-62 NSCLC
HOP-92 NSCLC = system: HOP-92 NSCLC
HT29 colon = system: HT29 colon
IGROV1 ovarian = system: IGROV1 ovarian
K-562 leukemia = system: K-562 leukemia
KM12 colon = system: KM12 colon
KM20L2 colon = system: KM20L2 colon
LOX IMVI melanoma = system: LOX IMVI melanoma
LXFL 529 NSCLC = system: LXFL 529 NSCLC
M14 melanoma = system: M14 melanoma
M19-MEL melanoma = system: M19-MEL melanoma
MALME-3M melanoma = system: MALME-3M melanoma
MOLT-4 leukemia = system: MOLT-4 leukemia
NCI-H226 lung = system: NCI-H226 lung
NCI-H23 lung = system: NCI-H23 lung
NCI-H460 lung = system: NCI-H460 lung
NCI-H522 lung = system: NCI-H522 lung
OVCAR-3 ovarian = system: OVCAR-3 ovarian
OVCAR-4 ovarian = system: OVCAR-4 ovarian
OVCAR-5 ovarian = system: OVCAR-5 ovarian
OVCAR-8 ovarian = system: OVCAR-8 ovarian
RPMI-8226 leukemia = system: RPMI-8226 leukemia
RXF 393 renal = system: RXF 393 renal
RXF-631 renal = system: RXF-631 renal
SF-268 CNS = system: SF-268 CNS
SF-295 CNS = system: SF-295 CNS
SF-539 CNS = system: SF-539 CNS
SK-MEL-2 melanoma = system: SK-MEL-2 melanoma
SK-MEL-28 melanoma = system: SK-MEL-28 melanoma
SK-OV-3 ovarian = system: SK-OV-3 ovarian
SN12C renal = system: SN12C renal
SNB-19 CNS = system: SNB-19 CNS
SNB-75 CNS = system: SNB-75 CNS
SNB-78 CNS = system: SNB-78 CNS
SW-620 colon = system: SW-620 colon
TK-10 renal = system: TK-10 renal
U251 CNS = system: U251 CNS
UACC-257 melanoma = system: UACC-257 melanoma
UACC-62 melanoma = system: UACC-62 melanoma
UO-31 renal = system: UO-31 renal
XF 498 CNS = system: XF 498 CNS
SK-MEL-5 melanoma = system: SK-MEL-5 melanoma
SR leukemia = system: SR leukemia

Measured: TGI

O=CN/C=C/c1ccc(O)c(O)c1
not listed: SK-MEL-5 melanoma | SR leukemia
> 100 µM: all other assays above

N#CC(c1nc2ccccc2nc1Cl)S(=O)(=O)c1ccccc1 (configuration not stated)
70.1 µM: HOP-92 NSCLC
94.4 µM: SNB-78 CNS
not listed: HT29 colon | IGROV1 ovarian | RXF 393 renal | RXF-631 renal | SF-295 CNS | SK-OV-3 ovarian
> 100 µM: all other assays above

C[Si](C)(C)c1ccc(-c2sc(-c3ccc([Si](C)(C)C)s3)c3c2C[Si]2(C3)Cc3c(-c4ccc([Si](C)(C)C)s4)sc(-c4ccc([Si](C)(C)C)s4)c3C2)s1
not listed: A498 renal | DMS 114 small cell lung | EKVX NSCLC | SK-MEL-2 melanoma
> 100 µM: all other assays above

COC(=O)c1cc(Cl)ccc1NC(=O)c1ccc([N+](=O)[O-])cc1
65.6 µM: RXF 393 renal
35.9 µM: XF 498 CNS
51.7 µM: KM12 colon
12.3 µM: OVCAR-4 ovarian
90.6 µM: MALME-3M melanoma
35.1 µM: HT29 colon
34.5 µM: A498 renal
66.5 µM: UACC-62 melanoma
90.7 µM: M14 melanoma
38.8 µM: HOP-62 NSCLC
80.4 µM: CCRF-CEM leukemia
53.1 µM: CAKI-1 renal
17.9 µM: HCT-116 colon
58.2 µM: A549 NSCLC
36.5 µM: RXF-631 renal
49.1 µM: SF-539 CNS
26.5 µM: ACHN renal
20.7 µM: SNB-75 CNS
38.2 µM: 786-0 renal
22.2 µM: U251 CNS
42.5 µM: NCI-H226 lung | SK-OV-3 ovarian
50.3 µM: NCI-H23 lung
57.8 µM: IGROV1 ovarian
6.1 µM: SF-295 CNS
76.8 µM: KM20L2 colon
77.3 µM: DMS 273 small cell lung
69.4 µM: RPMI-8226 leukemia
31.4 µM: OVCAR-3 ovarian
38.7 µM: UO-31 renal
63.9 µM: OVCAR-8 ovarian
40.6 µM: TK-10 renal
not listed: COLO 205 colon | HOP-92 NSCLC | LOX IMVI melanoma | NCI-H522 lung | SF-268 CNS | SN12C renal | SNB-19 CNS | SR leukemia
> 100 µM: all other assays above
